Assay results as given in ChEMBL document CHEMBL1201862, “PubChem BioAssay data set” (2004).
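Values below derive from 48-hour exposures of cells grown in 96-well plates, with endpoints linearly interpolated between the two concentrations bracketing the appropriate inhibition level. Here, GI50 denotes the concentration required for 50% inhibition of growth.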 Active and inactive are the calls of the source. Rule as the data show it: active = GI50 up to about 1.1 µM and inactive = higher. Non-standard residues stand in square brackets, D forms with d. Residues, ends and D or L forms follow the SMILES beside them. ξ: configuration not given here. *: point of attachment. ξF = NC(Cc1ccccc1)C(=O)O; Cbz = O=C(OCc1ccccc1)*; Aib = CC(C)(N)C(=O)O

Tests used:
Test in all cases: NCI-60 cell line screen, 48 h
NCI-H522 = system: NCI-H522
OVCAR-5 = system: OVCAR-5
UO-31 = system: UO-31
UACC-62 = system: UACC-62
SF-268 = system: SF-268
COLO 205 = system: COLO 205
OVCAR-4 = system: OVCAR-4
K562 = system: K562
MOLT-4 = system: MOLT-4
SF-295 = system: SF-295
HCC 2998 = system: HCC 2998
NCI-H460 = system: NCI-H460
HT-29 = system: HT-29
M14 = system: M14
EKVX = system: EKVX
HL-60 = system: HL-60
SR = system: SR
SN12C = system: SN12C
A498 = system: A498
U-251 = system: U-251

`O=c1sc2ccccc2n1CC1CS1` (stereo unspecified) was tested, and the GI50 (NCI-H522) was > 100 µM (inactive), the GI50 (OVCAR-5) was > 100 µM (inactive) and the GI50 (UO-31) was > 100 µM (inactive). For the same molecule, the GI50 (UACC-62) was > 100 µM (inactive), the GI50 (SF-268) was > 100 µM (inactive) and the GI50 (COLO 205) was > 100 µM (inactive). For the same molecule, the GI50 (OVCAR-4) was > 100 µM (inactive), the GI50 (K562) was > 100 µM (inactive) and the GI50 (MOLT-4) was > 100 µM (inactive). For the same molecule, the GI50 (SF-295) was > 100 µM (inactive), the GI50 (HCC 2998) was > 100 µM (inactive) and the GI50 (NCI-H460) was > 100 µM (inactive). For the same molecule, the GI50 (HT-29) was > 100 µM (inactive), the GI50 (M14) was > 100 µM (inactive) and the GI50 (EKVX) was > 100 µM (inactive). For the same molecule, the GI50 (HL-60) was > 100 µM (inactive), the GI50 (SR) was > 100 µM (inactive) and the GI50 (SN12C) was > 100 µM (inactive).
`C/C(CCOC1CCCCO1)=C(\C)[Si](C)(C)C` (stereo unspecified) was tested, and the GI50 (A498) was > 100 µM (inactive), the GI50 (NCI-H522) was > 100 µM (inactive) and the GI50 (OVCAR-5) was > 100 µM (inactive). For the same molecule, the GI50 (UO-31) was > 100 µM (inactive), the GI50 (UACC-62) was > 100 µM (inactive) and the GI50 (SF-268) was > 100 µM (inactive). The GI50 (COLO 205) was > 100 µM (inactive), the GI50 (K562) was > 100 µM (inactive) and the GI50 (MOLT-4) was 72.8 µM (inactive). The GI50 (SF-295) was > 100 µM (inactive), the GI50 (HCC 2998) was > 100 µM (inactive) and the GI50 (NCI-H460) was > 100 µM (inactive). The GI50 (U-251) was > 100 µM (inactive), the GI50 (HT-29) was > 100 µM (inactive) and the GI50 (M14) was > 100 µM (inactive). For the same molecule, the GI50 (EKVX) was > 100 µM (inactive), the GI50 (HL-60) was 93.3 µM (inactive) and the GI50 (SR) was > 100 µM (inactive). The GI50 (SN12C) was > 100 µM (inactive).
In the case of `Nc1ccn(C2OC(COP(=O)(O)Oc3ccccc3)C(O)C2O)c(=O)n1` (stereo unspecified), the GI50 (A498) is reported as 4.06 µM (inactive), the GI50 (NCI-H522) is reported as 16.6 µM (inactive) and the GI50 (OVCAR-5) is reported as > 100 µM (inactive). The GI50 (UO-31) was 30.6 µM (inactive), the GI50 (UACC-62) was 56.5 µM (inactive) and the GI50 (SF-268) was 20 µM (inactive). The GI50 (COLO 205) was 61.9 µM (inactive), the GI50 (OVCAR-4) was > 100 µM (inactive) and the GI50 (K562) was > 70.6 µM (inactive). The GI50 (MOLT-4) was 0.979 µM (active), the GI50 (SF-295) was > 100 µM (inactive) and the GI50 (HCC 2998) was > 100 µM (inactive). For the same molecule, the GI50 (NCI-H460) was 2.6 µM (inactive), the GI50 (U-251) was 44.6 µM (inactive) and the GI50 (HT-29) was > 100 µM (inactive). For the same molecule, the GI50 (EKVX) was 13.5 µM (inactive), the GI50 (HL-60) was 61.2 µM (inactive) and the GI50 (SN12C) was 12.7 µM (inactive).
`CCOC(=O)CNC(=O)C(Cc1ccccc1)NC(=O)C(C)(C)NC(=O)OCc1ccccc1` (stereo unspecified) (Cbz-[Aib]-[ξF]-Gly-OEt) was tested, and the GI50 (A498) was > 100 µM (inactive), the GI50 (NCI-H522) was 29.8 µM (inactive) and the GI50 (OVCAR-5) was > 100 µM (inactive). For the same molecule, the GI50 (UO-31) was > 100 µM (inactive), the GI50 (UACC-62) was 19.6 µM (inactive) and the GI50 (SF-268) was > 100 µM (inactive). For the same molecule, the GI50 (COLO 205) was 93.1 µM (inactive), the GI50 (OVCAR-4) was > 100 µM (inactive) and the GI50 (K562) was 33.1 µM (inactive). For the same molecule, the GI50 (MOLT-4) was 29.4 µM (inactive), the GI50 (SF-295) was > 100 µM (inactive) and the GI50 (HCC 2998) was 43.5 µM (inactive). For the same molecule, the GI50 (NCI-H460) was > 10 µM (inactive), the GI50 (U-251) was > 100 µM (inactive) and the GI50 (HT-29) was > 100 µM (inactive). For the same molecule, the GI50 (M14) was 37.7 µM (inactive), the GI50 (EKVX) was > 100 µM (inactive) and the GI50 (HL-60) was 32.9 µM (inactive). For the same molecule, the GI50 (SR) was 30.3 µM (inactive).
`COc1ccc(N2C(=O)C(=O)N(C)C2=O)c2ccccc12` was tested, and the GI50 (A498) was > 10 µM (inactive), the GI50 (NCI-H522) was > 10 µM (inactive) and the GI50 (OVCAR-5) was > 10 µM (inactive). For the same molecule, the GI50 (UO-31) was > 10 µM (inactive), the GI50 (UACC-62) was > 10 µM (inactive) and the GI50 (SF-268) was > 10 µM (inactive). The GI50 (COLO 205) was > 10 µM (inactive), the GI50 (OVCAR-4) was > 10 µM (inactive) and the GI50 (K562) was > 10 µM (inactive). For the same molecule, the GI50 (MOLT-4) was > 10 µM (inactive), the GI50 (SF-295) was > 10 µM (inactive) and the GI50 (HCC 2998) was > 10 µM (inactive). The GI50 (NCI-H460) was > 10 µM (inactive), the GI50 (U-251) was > 10 µM (inactive) and the GI50 (HT-29) was > 10 µM (inactive). The GI50 (M14) was > 10 µM (inactive), the GI50 (EKVX) was > 10 µM (inactive) and the GI50 (HL-60) was > 10 µM (inactive). The GI50 (SR) was > 10 µM (inactive) and the GI50 (SN12C) was > 10 µM (inactive).
`C[n+]1cccc2c(=O)c3ccccc3oc21` was tested, and the GI50 (A498) was > 100 µM (inactive), the GI50 (NCI-H522) was > 100 µM (inactive) and the GI50 (OVCAR-5) was > 100 µM (inactive). For the same molecule, the GI50 (UO-31) was 69.5 µM (inactive), the GI50 (UACC-62) was > 100 µM (inactive) and the GI50 (SF-268) was > 100 µM (inactive). For the same molecule, the GI50 (COLO 205) was > 100 µM (inactive), the GI50 (OVCAR-4) was > 100 µM (inactive) and the GI50 (K562) was > 100 µM (inactive). The GI50 (SF-295) was > 100 µM (inactive), the GI50 (HCC 2998) was > 100 µM (inactive) and the GI50 (NCI-H460) was > 100 µM (inactive). The GI50 (U-251) was > 100 µM (inactive), the GI50 (HT-29) was > 100 µM (inactive) and the GI50 (M14) was > 100 µM (inactive). The GI50 (EKVX) was > 100 µM (inactive), the GI50 (HL-60) was > 100 µM (inactive) and the GI50 (SR) was > 100 µM (inactive). The GI50 (SN12C) was > 100 µM (inactive).
`CN1C(=O)c2ccccc2NC(=O)c2cnn(C)c21` was tested, and the GI50 (A498) was > 100 µM (inactive), the GI50 (NCI-H522) was > 100 µM (inactive) and the GI50 (OVCAR-5) was > 100 µM (inactive). For the same molecule, the GI50 (UO-31) was > 100 µM (inactive), the GI50 (UACC-62) was > 100 µM (inactive) and the GI50 (SF-268) was > 100 µM (inactive). The GI50 (COLO 205) was > 100 µM (inactive), the GI50 (OVCAR-4) was > 100 µM (inactive) and the GI50 (K562) was > 100 µM (inactive). For the same molecule, the GI50 (MOLT-4) was > 100 µM (inactive), the GI50 (SF-295) was > 100 µM (inactive) and the GI50 (HCC 2998) was > 100 µM (inactive). For the same molecule, the GI50 (NCI-H460) was > 100 µM (inactive), the GI50 (U-251) was > 100 µM (inactive) and the GI50 (HT-29) was > 100 µM (inactive). The GI50 (EKVX) was > 100 µM (inactive), the GI50 (HL-60) was > 100 µM (inactive) and the GI50 (SN12C) was > 100 µM (inactive).
With `COc1ccc(N2NC(c3ccccc3)(c3ccccc3)C(C)C2=O)cc1` (stereo unspecified) the GI50 (A498) was > 100 µM (inactive), the GI50 (NCI-H522) was 43.9 µM (inactive) and the GI50 (OVCAR-5) was 56.2 µM (inactive). The GI50 (UO-31) was 30.1 µM (inactive), the GI50 (UACC-62) was 91.2 µM (inactive) and the GI50 (SF-268) was 88.5 µM (inactive). The GI50 (COLO 205) was 16 µM (inactive), the GI50 (OVCAR-4) was > 100 µM (inactive) and the GI50 (K562) was 52.1 µM (inactive). The GI50 (MOLT-4) was 49.2 µM (inactive), the GI50 (SF-295) was 36.3 µM (inactive) and the GI50 (HCC 2998) was > 100 µM (inactive). The GI50 (NCI-H460) was 29.6 µM (inactive), the GI50 (U-251) was 64.3 µM (inactive) and the GI50 (HT-29) was 40 µM (inactive). For the same molecule, the GI50 (M14) was 57.1 µM (inactive), the GI50 (EKVX) was 68.7 µM (inactive) and the GI50 (HL-60) was 35.3 µM (inactive). The GI50 (SR) was 96.6 µM (inactive) and the GI50 (SN12C) was 82.8 µM (inactive).
For `COc1ccc(-n2cnnc2-c2nsc3ccccc23)cc1`, the GI50 (OVCAR-5) was > 100 µM (inactive), the GI50 (UO-31) was > 100 µM (inactive) and the GI50 (UACC-62) was > 100 µM (inactive). The GI50 (SF-268) was 75.3 µM (inactive), the GI50 (COLO 205) was > 100 µM (inactive) and the GI50 (OVCAR-4) was > 100 µM (inactive). The GI50 (K562) was 90.6 µM (inactive), the GI50 (MOLT-4) was > 100 µM (inactive) and the GI50 (HCC 2998) was > 100 µM (inactive). For the same molecule, the GI50 (NCI-H460) was > 100 µM (inactive), the GI50 (U-251) was > 100 µM (inactive) and the GI50 (HT-29) was 92.5 µM (inactive). For the same molecule, the GI50 (M14) was > 100 µM (inactive), the GI50 (EKVX) was > 100 µM (inactive) and the GI50 (HL-60) was 78 µM (inactive). The GI50 (SR) was > 100 µM (inactive) and the GI50 (SN12C) was 99.8 µM (inactive).
With `COC1=CC(=O)c2c(c(O)c3oc4cc(OC)cc(C)c4c(=O)c3c2O)C1=O` [BIKAVERIN] the GI50 (A498) was 1.37 µM (inactive), the GI50 (NCI-H522) was 0.716 µM (active) and the GI50 (OVCAR-5) was 1.97 µM (inactive). The GI50 (UO-31) was 1.36 µM (inactive), the GI50 (UACC-62) was 1.24 µM (inactive) and the GI50 (SF-268) was 4.46 µM (inactive). The GI50 (COLO 205) was 20.3 µM (inactive), the GI50 (OVCAR-4) was 1.27 µM (inactive) and the GI50 (K562) was 0.719 µM (active). For the same molecule, the GI50 (MOLT-4) was 0.671 µM (active), the GI50 (SF-295) was 1.12 µM (inactive) and the GI50 (HCC 2998) was 9.91 µM (inactive). The GI50 (NCI-H460) was 1.34 µM (inactive), the GI50 (U-251) was 0.879 µM (active) and the GI50 (HT-29) was 19.4 µM (inactive). For the same molecule, the GI50 (EKVX) was 1.01 µM (active), the GI50 (HL-60) was 0.386 µM (active) and the GI50 (SN12C) was 1.56 µM (inactive).
